Assay results reported in patent US20170128390A1, “DISINFECTANT AND ANTIMICROBIAL COMPOSITIONS, IN PARTICULAR FOR THE VETERINARY FIELD” (I.C.F. S.R.L., priority 2014, published 2017).

Key:
[1] = tested on: Staphylococcus aureus ATCC 25923; test: Time-killing assay (bactericidal activity of new formulations), CFU count; assay type: cell-based; conditions: CLX 0.000106%, AMP 2041 0.5 μg/ml; for Δ (change of CFU count) at T0 / CFU count at T0: T0 = 0 min; for CFU count at T0 / CFU count at T0.5 / CFU count at T1 / CFU count at T3 / CFU count at T5 / CFU count at T10: CC 600; for Δ (change of CFU count) at T0.5 / CFU count at T0.5: T0.5 = 0.5 min; for Δ (change of CFU count) at T1 / CFU count at T1: T1 = 1 min; for Δ (change of CFU count) at T3 / CFU count at T3: T3 (footnote: T2.5 = 2.5 min); for Δ (change of CFU count) at T5 / CFU count at T5: T5 = 5 min; for Δ (change of CFU count) at T10 / CFU count at T10: T10 = 10 min
Experimental: For each strain of reference, three to five morphologically similar colonies are selected from blood agar plates and inoculated into tubes containing 6 ml of Brain Heart Infusion broth (DIFCO, USA).
The tubes are vortexed and incubated at 37° C. with stirring at 225 rpm for 3-4 hours, until achieving a required degree of turbidity, greater than or equal to 0.5 of the Mc Farland scale.
Thereafter, the bacterial suspension is centrifuged at 1000 rpm for 20 minutes. The resulting pellet of bacteria is resuspended in 10mM PB. The turbidity is adjusted with the same buffer solution and checked by measuring the absorbance of the suspension at the spectrophotometer. The absorbance is considered equal to 0.5 of the Mc Farland scale when the optical density at 600 nm is between 0:08-0:13. At this value, the bacterial suspension contains approximately 10^8UFC/ml. Two hundred microliters of the assessed and adjusted bacterial suspension are added to 19.8 ml of 10 mM PB to obtain a final dilution of 1:100. Then, within a thirty minutes, 0:05 ml of this suspension (10^6UFC/ml) are inoculated into each well of an ELISA plate to obtain a final concentration of bacteria of about 5×10^5UFC/ml.
The time-killing assay was carried out to evaluate the bactericidal effects of the new formulations, using a modified quantitative test of the European standards EN1040 and EN1276. 100 μl of the bacterial suspension are added to 900 μl of the new formulation and aliquots of 50 μl of the mixture are subjected to assay at 0.5, 1, 2.5, 5, 10, 20, 30, 60, 90 and 120 min., respectively. 450 μl of neutralizing solution are added to each sample and left to act at room temperature for 3 minutes. Thereafter, each sample is serially diluted in PBS (pH 7.4) and 50 μl are plated on LB agar and the plates incubated at 37° C. for 24 hours for the count of CFU. The sterility control (100 μl PBS in place of the bacterial suspension) and the control in the absence of the new formulation are set up. The test is also carried out in the presence of 0.3% and 3.0% (w/v) BSA to simulate a paraphysiological environment. All experiments were repeated in triplicate.

[2] = tested on: Pseudomonas aeruginosa ATCC 27853; test: as above; assay type: cell-based; conditions: CLX 0.000106%, AMP 2041 0.5 μg/ml, TRIS-EDTA 0.1% alone or 0.476%-0.126% in triple combination; for Δ (change of CFU count) at T0 / CFU count at T0: T0 = 0 min; for CFU count at T0 / CFU count at T0.5 / CFU count at T1 / CFU count at T3 / CFU count at T5 / CFU count at T10: CC 600; for Δ (change of CFU count) at T0.5 / CFU count at T0.5: T0.5 = 0.5 min; for Δ (change of CFU count) at T1 / CFU count at T1: T1 = 1 min; for Δ (change of CFU count) at T3 / CFU count at T3: T3 (footnote: T2.5 = 2.5 min); for Δ (change of CFU count) at T5 / CFU count at T5: T5 = 5 min; for Δ (change of CFU count) at T10 / CFU count at T10: T10 = 10 min
Experimental: The tubes are vortexed and incubated at 37° C. with stirring at 225 rpm for 3-4 hours, until achieving a required degree of turbidity, greater than or equal to 0.5 of the Mc Farland scale. Thereafter, the bacterial suspension is centrifuged at 1000 rpm for 20 minutes. The resulting pellet of bacteria is resuspended in 10mM PB. The turbidity is adjusted with the same buffer solution and checked by measuring the absorbance of the suspension at the spectrophotometer. The absorbance is considered equal to 0.5 of the Mc Farland scale when the optical density at 600 nm is between 0:08-0:13. At this value, the bacterial suspension contains approximately 10^8UFC/ml. Two hundred microliters of the assessed and adjusted bacterial suspension are added to 19.8 ml of 10 mM PB to obtain a final dilution of 1:100. Then, within a thirty minutes, 0:05 ml of this suspension (10^6UFC/ml) are inoculated into each well of an ELISA plate to obtain a final concentration of bacteria of about 5×10^5UFC/ml. […] Thereafter, each sample is serially diluted in PBS (pH 7.4) and 50 μl are plated on LB agar and the plates incubated at 37° C. for 24 hours for the count of CFU. The sterility control (100 μl PBS in place of the bacterial suspension) and the control in the absence of the new formulation are set up. The test is also carried out in the presence of 0.3% and 3.0% (w/v) BSA to simulate a paraphysiological environment. All experiments were repeated in triplicate.

[H]/N=C(\N/C(=N/[H])NCCCCCCNC(=N)NC(=N)Nc1ccc(Cl)cc1)Nc1ccc(Cl)cc1 [CLX, chlorhexidine]
Δ (change of CFU count) at T0 [1]: Δ = 0% | CFU count at T0 [1]: 600 | Δ (change of CFU count) at T0.5 [1]: Δ = 0% | CFU count at T0.5 [1]: 600 | Δ (change of CFU count) at T1 [1]: Δ = 0% | CFU count at T1 [1]: 600 | Δ (change of CFU count) at T3 [1]: Δ = 0% | CFU count at T3 [1]: 600 | Δ (change of CFU count) at T5 [1]: Δ = 0% | CFU count at T5 [1]: 600 | Δ (change of CFU count) at T10 [1]: Δ = 0% | CFU count at T10 [1]: 600 | Δ (change of CFU count) at T0 [2]: Δ = 0% | CFU count at T0 [2]: 600 | Δ (change of CFU count) at T0.5 [2]: Δ = 0% | CFU count at T0.5 [2]: 600 | Δ (change of CFU count) at T1 [2]: Δ = 0% | CFU count at T1 [2]: 600 | Δ (change of CFU count) at T3 [2]: Δ = 0% | CFU count at T3 [2]: 600 | Δ (change of CFU count) at T5 [2]: Δ = 0% | CFU count at T5 [2]: 600 | Δ (change of CFU count) at T10 [2]: Δ = 0% | CFU count at T10 [2]: 600

AMP 2041: peptide named AMP2041 (SEQ.ID. No.1), synthesized by SelleckChem (HKCAKIKWRGVHVKYCA)
Δ (change of CFU count) at T0 [1]: Δ = 0% | CFU count at T0 [1]: 600 | Δ (change of CFU count) at T0.5 [1]: Δ = 0% | CFU count at T0.5 [1]: 600 | Δ (change of CFU count) at T1 [1]: Δ = 0% | CFU count at T1 [1]: 600 | Δ (change of CFU count) at T3 [1]: Δ = 0% | CFU count at T3 [1]: 600 | Δ (change of CFU count) at T5 [1]: Δ = 0% | CFU count at T5 [1]: 600 | Δ (change of CFU count) at T10 [1]: Δ = 0% | CFU count at T10 [1]: 600 | Δ (change of CFU count) at T0 [2]: Δ = 0% | CFU count at T0 [2]: 600 | Δ (change of CFU count) at T0.5 [2]: Δ = 0% | CFU count at T0.5 [2]: 600 | Δ (change of CFU count) at T1 [2]: Δ = 0% | CFU count at T1 [2]: 600 | Δ (change of CFU count) at T3 [2]: Δ = 0% | CFU count at T3 [2]: 600 | Δ (change of CFU count) at T5 [2]: Δ = 0% | CFU count at T5 [2]: 600 | Δ (change of CFU count) at T10 [2]: Δ = 0% | CFU count at T10 [2]: 600
